This assay relates to C3AKF1 mice, hamster liver cystadenocarcinoma s.c., tumor weight T/C. In words: NCI In Vivo Anticancer Drug Screen. Data for tumor model Cystadenocarcinoma, Liver (No. 1) (Hamster) (subcutaneous) in C3AKF1 (CHKRF1) mice. The settings on record: endpoint: mean tumor weight, higher = larger tumour. As for the experimental part: The antitumor activity of compounds was measured in mice bearing transplantable tumors. Survival or tumor size were measured and the results are expressed as the measurement made in the treated group (T) divided by the measurement made in the vehicle treated control group (C). The tumor model used in this assay is Cystadenocarcinoma, Liver (No. 1) (Hamster) (subcutaneous) in C3AKF1 (CHKRF1) mice

[1] abbreviates: dose: 125.0 mg/kg/injection, schedule: Q01DX010 (ip), vehicle: carboxymethylcellulose (CMC).
Where [2] appears, read: dose: 250.0 mg/kg/injection, schedule: Q01DX010 (ip), vehicle: carboxymethylcellulose (CMC).
Setting [3] is: dose: 12.0 mg/kg/injection, schedule: Q01DX010 (ip), vehicle: carboxymethylcellulose (CMC).
[4] abbreviates: dose: 25.0 mg/kg/injection, schedule: Q01DX010 (ip), vehicle: carboxymethylcellulose (CMC).
The mark [5] stands for this setting: dose: 50.0 mg/kg/injection, schedule: Q01DX010 (ip), vehicle: carboxymethylcellulose (CMC).
Setting [6] is: dose: 100.0 mg/kg/injection, schedule: Q01DX010 (ip), vehicle: carboxymethylcellulose (CMC).
Setting [7] is: dose: 2.0 mg/kg/injection, schedule: Q01DX010 (ip), vehicle: carboxymethylcellulose (CMC).
Where [8] appears, read: dose: 62.5 mg/kg/injection, schedule: Q01DX010 (ip), vehicle: carboxymethylcellulose (CMC).
Where [9] appears, read: dose: 6.0 mg/kg/injection, schedule: Q01DX010 (ip), vehicle: carboxymethylcellulose (CMC).
The mark [10] stands for this setting: dose: 125.0 mg/kg/injection, schedule: Q01DX010 (ip), vehicle: saline.
Where [11] appears, read: dose: 62.0 mg/kg/injection, schedule: Q01DX010 (ip), vehicle: carboxymethylcellulose (CMC).

“And” between values parts separate entries of the source, which are not always exact repeats. Equal values may be shown once. Records with an inconclusive call do not appear.

Take `C=CCn1c(=O)n(CC=C)c(=O)n(CC=C)c1=O`: the T/C reads like this: (dose: 22.5 mg/kg/injection, schedule: Q01DX010 (ip), vehicle: saline) 76 % of control; (dose: 45.0 mg/kg/injection, schedule: Q01DX010 (ip), vehicle: saline) 63 % of control; (dose: 90.0 mg/kg/injection, schedule: Q01DX010 (ip), vehicle: saline) 63 % of control.

As for `O=CC(O)CO` (configuration not stated), the T/C is 120 % of control under setting [1] and 108 % of control under setting [2].

As to `O=C(O)CCc1c[nH]c2ccc(N(CCCl)CCCl)cc12`, the T/C runs as follows: (dose: 1.2 mg/kg/injection, schedule: Q01DX010 (ip), vehicle: carboxymethylcellulose (CMC)) 109 % of control; (dose: 2.5 mg/kg/injection, schedule: Q01DX010 (ip), vehicle: carboxymethylcellulose (CMC)) 97 % of control; (dose: 5.0 mg/kg/injection, schedule: Q01DX010 (ip), vehicle: carboxymethylcellulose (CMC)) 77 % of control; (dose: 10.0 mg/kg/injection, schedule: Q01DX010 (ip), vehicle: carboxymethylcellulose (CMC)) 69 % of control.

On to `CC1CN1C(=O)c1cc(C(=O)N2CC2C)cc(C(=O)N2CC2C)c1` (configuration not stated), for which the T/C is, setting by setting: (dose: 15.0 mg/kg/injection, schedule: Q01DX010 (ip), vehicle: carboxymethylcellulose (CMC)) 83 % of control; (dose: 30.0 mg/kg/injection, schedule: Q01DX010 (ip), vehicle: carboxymethylcellulose (CMC)) 84 % of control; (dose: 60.0 mg/kg/injection, schedule: Q01DX010 (ip), vehicle: carboxymethylcellulose (CMC)) 118 % of control.

On to `CS(=O)(=O)OCC(=O)NCCNC(=O)COS(C)(=O)=O`, for which the T/C is, setting by setting: (dose: 20.0 mg/kg/injection, schedule: Q01DX010 (ip), vehicle: carboxymethylcellulose (CMC)) 105 % of control; (dose: 40.0 mg/kg/injection, schedule: Q01DX010 (ip), vehicle: carboxymethylcellulose (CMC)) 100 % of control.

With `C=CC(=O)NCNC(=O)C=C`, the T/C (dose: 15.0 mg/kg/injection, schedule: Q01DX010 (ip), vehicle: saline) was 66 % of control; the T/C (dose: 30.0 mg/kg/injection, schedule: Q01DX010 (ip), vehicle: saline) is 119 % of control; the T/C (dose: 60.0 mg/kg/injection, schedule: Q01DX010 (ip), vehicle: saline) was 62 % of control; the T/C (dose: 120.0 mg/kg/injection, schedule: Q01DX010 (ip), vehicle: saline) is 77 % of control.

Consider `O=C(Nc1ccc(C2=NCCN2)cc1)c1ccc(C(=O)Nc2ccc(C3=NCCN3)cc2)c(Cl)c1`, for which the T/C was 83 % of control (dose: 5.0 mg/kg/injection, schedule: Q01DX010 (ip), vehicle: saline); 114 % of control (dose: 10.0 mg/kg/injection, schedule: Q01DX010 (ip), vehicle: saline); 80 % of control (dose: 20.0 mg/kg/injection, schedule: Q01DX010 (ip), vehicle: saline).

`Nc1nc(SCc2ccccc2Cl)c2[nH]cnc2n1`: the T/C is 55 % of control under setting [3]; 104 % of control under setting [4]; 60 % of control and 84 % of control under setting [5]; 100 % of control and 109 % of control under setting [6].

For the compound `CCCCCCCCCCCCn1c(C)nc2ccccc21`, the T/C is 79 % of control under setting [7] and 62 % of control (dose: 8.0 mg/kg/injection, schedule: Q01DX010 (ip), vehicle: carboxymethylcellulose (CMC)).

Take `NC(=O)/C=C/C(=O)O` (tested in a mixture with another compound): for the setting “dose: 31.0 mg/kg/injection, schedule: Q#A X010 (ip), vehicle: saline”, the T/C is 68 % of control.

For the compound `Cc1c2ccc3ccccc3c2c[n+]2ccccc12`, the T/C reads like this: (dose: 3.0 mg/kg/injection, schedule: Q01DX010 (ip), vehicle: carboxymethylcellulose (CMC)) 153 % of control; under setting [3], 89 % of control.

For the compound `C1CC[N-]CC1.C1CC[N-]CC1.C1CC[N-]CC1.C1CC[N-]CC1.[Cl][Co][Cl]`, the T/C (dose: 35.0 mg/kg/injection, schedule: Q01DX010 (ip), vehicle: saline) was 84 % of control; the T/C (dose: 55.0 mg/kg/injection, schedule: Q01DX010 (ip), vehicle: saline) is 82 % of control; the T/C (dose: 80.0 mg/kg/injection, schedule: Q01DX010 (ip), vehicle: saline) was 71 % of control.

In the case of `O=c1c[n+](-c2ccccc2)[nH]o1`, the T/C (dose: 22.5 mg/kg/injection, schedule: Q01DX010 (ip), vehicle: carboxymethylcellulose (CMC)) was 66 % of control and the T/C (dose: 45.0 mg/kg/injection, schedule: Q01DX010 (ip), vehicle: carboxymethylcellulose (CMC)) was 41 % of control.

With `CCN(CC)Cc1cc(Nc2c3ccccc3nc3cc(Cl)ccc23)ccc1O`, the T/C reads like this: (dose: 6.25 mg/kg/injection, schedule: Q01DX010 (ip), vehicle: carboxymethylcellulose (CMC)) 84 % of control; (dose: 12.5 mg/kg/injection, schedule: Q01DX010 (ip), vehicle: carboxymethylcellulose (CMC)) 106 % of control; under setting [4], 87 % of control; under setting [5], 88 % of control.

Turning to `O=c1[nH]cnc2n[nH]nc12`, the T/C is, setting by setting: under setting [8], 112 % of control; under setting [1], 77 % of control; under setting [2], 60 % of control; (dose: 500.0 mg/kg/injection, schedule: Q01DX010 (ip), vehicle: carboxymethylcellulose (CMC)) 68 % of control.

Consider `O=C1C=CC(=Nc2ccc(O)c3ncccc23)c2cccnc21`, for which, under setting [9], the T/C is 95 % of control.

As for `CC(Cl)CN(Cc1cc(O)c(CN(CC(C)Cl)CC(C)Cl)cc1O)CC(C)Cl` (configuration not stated), the T/C under setting [8] was 64 % of control.

As for `C=CCNc1ccc(C)cc1`, the T/C reads like this: (dose: 85.0 mg/kg/injection, schedule: Q01DX010 (ip), vehicle: saline) 64 % of control; under setting [10], 91 % of control; (dose: 185.0 mg/kg/injection, schedule: Q01DX010 (ip), vehicle: saline) 78 % of control.

`Nc1ccc2ccccc2c1N=Nc1ccccc1`: the T/C is 73 % of control under setting [8] and 79 % of control under setting [1].

On to `O=S(=O)(O)C(Nc1ccccc1)c1ccccc1` (configuration not stated), for which the T/C was 88 % of control (dose: 100.0 mg/kg/injection, schedule: Q01DX010 (ip), vehicle: water); 66 % of control (dose: 200.0 mg/kg/injection, schedule: Q01DX010 (ip), vehicle: water); 84 % of control (dose: 400.0 mg/kg/injection, schedule: Q01DX010 (ip), vehicle: water).

As for `CCOC1=CCCCC1`, the T/C reads like this: under setting [11], 94 % of control; under setting [1], 106 % of control; under setting [10], 48 % of control; (dose: 250.0 mg/kg/injection, schedule: Q01DX010 (ip), vehicle: saline) 95 % of control; (dose: 500.0 mg/kg/injection, schedule: Q01DX010 (ip), vehicle: saline) 99 % of control.

With `CCC[CH2][Sn]1([CH2]CCC)[O]C(=O)C[S]1`, the T/C (dose: 0.39 mg/kg/injection, schedule: Q01DX010 (ip), vehicle: saline) is 113 % of control; the T/C (dose: 0.78 mg/kg/injection, schedule: Q01DX010 (ip), vehicle: saline) is 110 % of control; the T/C (dose: 1.56 mg/kg/injection, schedule: Q01DX010 (ip), vehicle: saline) is 66 % of control.

For the compound `COc1cc(OC)c(OC)cc1/C=C\c1ccnc2ccccc12`, the T/C is 104 % of control (dose: 63.0 mg/kg/injection, schedule: Q01DX010 (ip), vehicle: carboxymethylcellulose (CMC)); 97 % of control under setting [1]; 95 % of control under setting [2].

Regarding `Clc1ncnc2c1ncn2C1CCCO1` (configuration not stated), the T/C is 77 % of control under setting [4]; 81 % of control and 93 % of control under setting [6]; 52 % of control and 72 % of control (dose: 400.0 mg/kg/injection, schedule: Q01DX010 (ip), vehicle: carboxymethylcellulose (CMC)); 113 % of control (dose: 800.0 mg/kg/injection, schedule: Q01DX010 (ip), vehicle: carboxymethylcellulose (CMC)).

For `N[C@@H](Cc1ccc(N(CCCl)CCCl)cc1)C(=O)O`, the T/C runs as follows: (dose: 0.5 mg/kg/injection, schedule: Q01DX010 (ip), vehicle: carboxymethylcellulose (CMC)) 57 % of control; (dose: 1.0 mg/kg/injection, schedule: Q01DX010 (ip), vehicle: carboxymethylcellulose (CMC)) 63 % of control; under setting [7], 92 % of control; (dose: 4.0 mg/kg/injection, schedule: Q01DX010 (ip), vehicle: carboxymethylcellulose (CMC)) 75 % of control.

As to `Nc1nc(SCc2ccccc2Cl)c2ncn(C3OC(CO)C(O)C3O)c2n1` (configuration not stated), the T/C is 104 % of control under setting [9], 85 % of control under setting [3] and 112 % of control under setting [4].

Turning to `O=C(Nc1ccc(C2=NCCN2)cc1)c1ccc(C(=O)Nc2ccc(C3=NCCN3)cc2)c(NC(=O)c2ccc(C(=O)Nc3cc(C(=O)Nc4ccc(C5=NCCN5)cc4)ccc3C(=O)Nc3ccc(C4=NCCN4)cc3)cc2)c1`, the T/C under setting [11] was 102 % of control and the T/C under setting [2] was 205 % of control.

These data come from PubChem BioAssay AID234 (DTP/NCI, 2004).
